US8940271B2, “Transmucosal administration of drug compositions for treating and preventing disorders in animals” (Abbott Laboratories, priority 2005, dated 2015)
Like-named read-outs stand apart in the source and are kept apart here.

Tests used:
[1] = Canine anesthetized carprofen absorption study; format: in vivo, dog; conditions: TMOM
Method: A canine anesthetized absorption study was also carried out. […] The carprofen was administered using a transmucosal oral mist. Blood samples were taken 0, 5, 15, 30 min, and 1, 2, 4, 8, 12, and 24 hours post-dose. Jugular and cephalic vein samples were obtained 5, 15 and 30 and 1 and 2 hours post-dose. The target dosage was 2.2 mg/kg (50 mg/mL Rimadyl® injectable solution, 300 μL (15 mg), target dose range 1.9-2.5 mg/kg).

[2] = Canine carprofen study (caplet, TMOM, subcutaneous injection); format: in vivo, dog; conditions: dogs
[3] = Zolpidem two-way crossover, tablet vs TMOM, canine; conditions: for absorption time and absorption half-life, TMOM vs tablet / peak plasma concentration (Cmax), TMOM vs tablet: dogs
Method: (§1) A six animal (canine and feline) two-way crossover experiment was carried out in which the subjects were administered a zolpidem tablet or a transmucosal oral mist of a 2.5% zolpidem tartrate solution.
Canine subjects were administered tablets (average dose 0.55 mg/kg (0.40-0.63 mg/kg)) or a transmucosal oral mist (average dose 0.55 mg/kg (0.42-0.62 mg/kg)). The transmucosal oral mist administration used a spray volume of 200-250 μL in 2-3 pumps of the spray dispenser. By comparison, the average human dose is 0.08-0.17 mg/kg

[4] = Zolpidem two-way crossover, tablet vs TMOM, feline
Method: as §1
Feline subjects were administered tablets (average dose 0.74 mg/kg) or a transmucosal oral mist (average dose 0.72 mg/kg). The transmucosal oral mist used a spray volume of 100 μL in 1 pump of the spray dispenser.

[5] = equine, oral gavage; Törneke et al. 2003; cited from earlier work
[6] = in vivo; conditions: horse, plasma, po, 0.1 mg/kg
Method: (§2) The target dose for canine subjects was 1 mg/kg (both transmucosal oral administration and tablets). The average tablet dose was 0.96 mg/kg (0.95-0.97 mg/kg) and the average transmucosal oral administration dose was 0.97 mg/kg (0.91-1.06 mg/kg) administered in a spray volume of 400-650 μL using 4-7 pumps of the spray device. The target dose for feline subjects was also 1 mg/kg for both transmucosal oral administration and tablets. The average tablet dose of 1.07 mg/kg (0.89-1.22 mg/kg) and the average transmucosal oral administration dose was 0.95 mg/kg (0.83-1.14 mg/kg) administered in a spray volume of 100-200 μL using 1-2 pumps of the spray device. The target dose for equine subjects was 0.1 mg/kg for both transmucosal oral administration and tablets. The average tablet dose (via stomach tube) was 0.1 mg/kg (0.10-0.11 mg/kg) and the average transmucosal oral administration dose was 0.1 mg/kg (0.09-0.11 mg/kg) administered in a spray volume of 1.4-1.7 mL using 14-17 pumps of the spray device.
(§3) Blood samples were taken 5, 15, 30 min, 1, 2, 4, 7, 12, 24 hours post dose.

[7] = Clemastine two-way crossover, tablets vs TMOM, canine
Method: as §2, §3

[8] = Canine anesthetized clemastine absorption study; format: in vivo, dog; conditions: anesthetized canine subjects, TMOM
Method: A canine anesthetized absorption study was also carried out.

[9] = in vivo; conditions: dog, plasma, po, 1 mg/kg
Method: as §2, §3

[10] = Clemastine two-way crossover, tablets (stomach tube) vs TMOM, equine
Method: as §2, §3

[11] = Enrofloxacin feline study, tablets vs TMOM; format: in vivo, cat; conditions: cats
Method: A six cat, two-way crossover study was carried out to compare conventional oral administration (i.e., tablets, Baytril®) with transmucosal oral administration (Baytril® 100; 100 mg of enrofloxacin, L-arginine base 200 mg, n-butyl alcohol 30 mg, benzyl alcohol (as a preservative) 20 mg, and water for injection, q.s.). The target was 5 mg/kg enrofloxacin. The average tablet dose was 4.7 mg/kg and the average TMOM™ dose was 4.9 mg/kg (250-300 μL).

[12] = dogs
Method: A six dog, two-way crossover experiment was carried out with a target dose of 6.0 mg/kg propofol administered by IV, and 30.0 mg/kg of propofol using transmucosal oral administration.

[13] = Milbemycin canine study, tablets vs TMOM; format: in vivo, dog; conditions: dogs
Method: A twelve dog random parallel design was carried out to compare conventional oral administration (i.e., tablets) of Milbemycin with transmucosal oral administration. The tablets used were Interceptor® Flavor Tab®, 5.75 mg and 11.5 mg, providing an average dose of 0.78 mg/kg (0.50-0.99 mg/kg).

[14] = cited from earlier work
[15] = pH dependence of dissolution/precipitation of 1% meloxicam; format: physicochemical; conditions: 95:5 water:propylene glycol, concentrated NaOH solution (10 M) added
[16] = as above; format: physicochemical
Method: NaOH solution (1 M) was added to the mixture to provide a pH of 10. […] Each solution was then titrated with HCl (aq). […] Similarly, for the 85:15 water:ethanol solvent system, a precipitate formed when the initial apparent pH of 12 was reduced to 7.7 (by addition of HCl).

[17] = Canine meloxicam absorption study (TMOM vs oral suspension); conditions: ~0.2 mg/kg, dogs
Method: The average oral suspension dose was 0.20 mg/kg (range 0.19-0.21 mg/kg), and the average dose using transmucosal oral administration was 0.20 mg/kg (range 0.19-0.21 mg/kg). Blood samples were obtained at 0, 5, 30 minutes and 1, 2, 4, 8, 12, 24, 48, and 72 hours post dose.
The AUC represents the area under the curve or the total amount of drug exposure to the animal following administration by the two different dosage forms. […] Absorption half-life is the amount of time it takes for half of what is left at the site of absorption to be absorbed.

[18] = Stability of meloxicam with various solubilizing agents; format: physicochemical; conditions: storage with PVA, Polysorbate 80 or glycerin
[19] = Canine anesthetized meloxicam absorption study; conditions: TMOM
Method: A canine anesthetized absorption study was also carried out. The subjects were anesthetized dogs using minimal pre-anesthetics (isoflurane via an endotracheal tube). The possibility of run off into and absorption by the gastrointestinal tract was prevented by obstructing the esophagus with a Foley catheter. […] Blood samples were taken 0, 5, 30 min, and 1, 2, 4, 8, 12, 24, and 72 hours post-dose. Jugular and cephalic vein samples were obtained 5, 30 min and 4, 8 hours post-dose.

[20] = ~0.5 mg/kg, listed as zolpidem tartrate

Compound: CC(C(=O)O)c1ccc2c(c1)[nH]c1ccc(Cl)cc12 (stereo not shown) [carprofen]
- plasma jugular levels as compared to cephalic levels ([1]; anesthetized dogs, at 30 min): higher
- AUC for anesthetized animals relative to awake animals ([1]; dogs): approximately 25%
- Cmax and AUC values, caplet vs transmucosal oral administration [2]: very similar
- Cmax of the subcutaneous injection relative to caplet or transmucosal oral administration [2]: approximately half
- Tmax, transmucosal oral administration vs caplet [2]: shorter
- absorption and Tmax, subcutaneous injection vs caplet or TMOM [2]: slower absorption and greater time to peak concentrations
- absorption, transmucosal oral administration vs caplet [2]: slightly faster
- lag time ([2]; transmucosal oral administration): no lag time
- AUC values of the three administration methods ([2]; caplet, TMOM, subcutaneous injection): all similar

Compound: Cc1ccc(-c2nc3ccc(C)cn3c2CC(=O)N(C)C)cc1 [zolpidem, N,N-6-trimethyl-2-p-tolyl-imidazo[1,2-a]pyridine-3-acetamide]
- vomiting after TMOM administration ([3]; canine, 12 minutes after administration): One of the canine subjects vomited
- time within which substantially all of the dose was absorbed ([3]; canine, TMOM): ≤ 12 min
- AUC, TMOM vs tablet ([3]; canine, ~0.5 mg/kg): greater
- Tmax, TMOM vs tablet ([3]; canine, ~0.5 mg/kg): shorter
- absorption time and absorption half-life, TMOM vs tablet ([3]; ~0.5 mg/kg): shorter
- peak plasma concentration (Cmax), TMOM vs tablet ([3]; ~0.5 mg/kg): greater
- absorption time and absorption half-life, TMOM vs tablet [3, 20]: significantly lower (shorter)
- peak plasma concentration (Cmax), TMOM vs tablet [3, 20]: higher
- absorption time, peak plasma concentration, and total absorption, TMOM vs tablet ([4]; cats, within experimental error): comparable
- AUC, TMOM vs tablet ([4]; feline, salivation can lead to reduced absorption): lower

Compound: CN1CCC[C@@H]1CCO[C@](C)(c1ccccc1)c1ccc(Cl)cc1 [clemastine]
- t1/2 [5]: 2.9 h
- half-life [6]: 2.8 h
- salivation ([7]; canine subjects): none to moderate
- peak (Cmax), transmucosal oral vs tablet ([7]; canine, ~1 mg/kg): much higher
- AUC and Cmax, TMOM route vs oral tablet route ([7]; dogs, 1 mg/kg): about an order of magnitude greater
- absorption (cats): well absorbed
- salivation (feline subjects): mild to severe
- AUC values, transmucosal oral vs tablet (feline, ~1 mg/kg, appears to be an artifact of salivation): Lower
- absorption via the transmucosal route [8]: readily absorbed
- Tmax [9]: ~0.167 h
- Tmax, transmucosal oral vs oral gavage of tablets ([10]; 0.1 mg/kg): shorter
- bioavailability, transmucosal oral vs oral gavage of tablets ([10]; 0.1 mg/kg): significantly better
- bioavailability of clemastine in tablet form ([10]; oral gavage): extremely poor

Compound: CCN1CCN(c2cc3c(cc2F)c(=O)c(C(=O)O)cn3C2CC2)CC1 [enrofloxacin]
- lag time in uptake ([11]; TMOM): no lag time
- jugular plasma concentrations as compared to cephalic concentrations ([11]; TMOM, 5 min time point): Consistently and significantly higher
- AUC, Cmax, Tmax or t1/2 values, transmucosal vs conventional administration ([11]; ~5 mg/kg): essentially no difference

Compound: CC(C)c1cccc(C(C)C)c1O [propofol]
- uptake using transmucosal oral administration [12]: rapid
- Cmax value compared to IV administration ([12]; TMOM ~30 mg/kg vs IV ~6 mg/kg): somewhat lower
- part of transmucosally administered dose absorbed ([12]; TMOM ~30 mg/kg, by 2 hours): Greater than 90%

Compound: Milbemycin
- variability of plasma concentrations, transmucosal vs tablet [13]: less variable
- uptake by transmucosal oral administration ([13]; 0.28 mg/kg): very good
- bioavailability, transmucosal oral administration vs conventional tablet ([13]; corrected for dosage): similar

Compound: C[C@H]1O[C@@H](O[C@H]2[C@@H](O)C[C@H](O[C@H]3[C@@H](O)C[C@H](O[C@H]4CC[C@@]5(C)[C@H](CC[C@@H]6[C@@H]5C[C@@H](O)[C@]5(C)[C@@H](C7=CC(=O)OC7)CC[C@]65O)C4)O[C@@H]3C)O[C@@H]2C)C[C@H](O)[C@@H]1O [Digoxin, (3β,5β,12β)-3-[(O-2,6-dideoxy-β-D-ribo-hexopyranosyl-(1,4)-O-2,6-dideoxy-β-D-ribo-hexopyranosyl-(1,4)-O-2,6-dideoxy-β-D-ribo-hexopyranosyl)oxy]-12,14-dihydroxy-card-20(22)-enolide]
- solubility ([14]; in chloroform): slightly soluble
- solubility ([14]; in diluted (e.g., about 50%) alcohol): slightly soluble
- solubility ([14]; in ether): practically insoluble
- solubility ([14]; in pyridine): freely soluble
- solubility ([14]; in water): practically insoluble

Compound: Cc1cnc(NC(=O)C2=C(O)c3ccccc3S(=O)(=O)N2C)s1 [Meloxicam, 4-hydroxy-2-methyl-N-(5-methyl-2-thiazolyl)-2H-1,2-benzothiazine-3-carboxamide-1,1-dioxide]
- dissolution of 1% meloxicam [15]: did not dissolve
- pH needed for meloxicam to remain in solution [16]: greater than 8.0
- pH value of solution causing meloxicam precipitation [16]: less than 8
- apparent pH at which a precipitate formed ([16]; 1% meloxicam, 85:15 water:ethanol, initial apparent pH of 12 reduced by HCl): 7.7
- pH at which meloxicam precipitation was observed ([16]; 1% meloxicam, 100% water, titrated with HCl (aq)): 7.2
- dissolution of 1% meloxicam ([16]; 80% water/15% EtOH/5% Poloxamer 188, 1 M NaOH added to pH of 10): dissolve
- dissolution of 1% meloxicam ([16]; 80% water/15% EtOH/5% Poloxamer 188, acidified to pH of 7 with 0.2 M HCl): precipitate
- dissolution of 1% meloxicam ([16]; 80% water/15% EtOH/5% Poloxamer 188, additional 1 M NaOH, pH to 8): redissolved and remained in solution
- dissolution of 1% meloxicam ([16]; 80% water/15% EtOH/5% Poloxamer 188, pH of approximately 5.8): did not dissolve completely
- dissolution of 1% meloxicam ([16]; 100% water, pH adjusted to 10.1): redissolved
- dissolution of 1% meloxicam ([16]; 100% water, pH then reduced to approximately 7.8): no further precipitation
- bioequivalence to meloxicam administered via an oral suspension [17]: bioequivalent
- physical stability of the meloxicam solution [18]: greater with PVA than Polysorbate 80 or glycerin
- jugular plasma levels as compared to cephalic (systemic) levels ([19]; anesthetized dogs, at 30 min and 4 h): higher
- part of the dose in an awake animal delivered transmucosally ([19]; dogs): ≤ 90%
